# Source: ChEMBL document CHEMBL3885861, “Open TG-GATES”
# Values joined by “and” are separate entries in the source; they are usually repeats but may differ in a detail not shown here. Equal values may be shown once.
# Species on record: Rattus norvegicus
# Assay: Open TG-GATES - Regimen: Single
# Assay type: toxicity, organism-based, Sprague-Dawley
# Parameters: regimen Single, gender Male, age 6 weeks
# Details: in vivo, po, 0 mg/kg, route gavage, dose level Control; for APTT / Bas / Eos / Fbg / Hb / Ht / Lym / MCH / MCHC / MCV / Mono / Neu / PT / Plat / RBC / Ret / WBC: tissue Blood; for KIDNEY_L / KIDNEY_R / KIDNEY_TOTAL: tissue Kidney; for LIVER: tissue Liver
compound,measurement,setting,value
O=C1CN(/N=C/c2ccc([N+](=O)[O-])o2)C(=O)N1 [NITROFURANTOIN],TERMINAL_BW,3 h,220.5 g and 212 g
same,APTT,3 h,20.2 s and 16.2 s
same,Bas,3 h,0%
same,Eos,3 h,0.8% and 1.4%
same,Fbg,3 h,213.2 mg/dL and 223.8 mg/dL
same,Hb,3 h,13.3 g/dL and 12.9 g/dL
same,Ht,3 h,37.7% and 38.8%
same,Lym,3 h,79.2% and 74%
same,MCH,3 h,21.5 pg
same,MCHC,3 h,35.3% and 33.1%
same,MCV,3 h,60.7 fL and 64.8 fL
same,Mono,3 h,2% and 5%
same,Neu,3 h,16.4% and 20.2%
same,PT,3 h,12.9 s and 12 s
same,Plat,3 h,112.1 x10_4/uL and 122.4 x10_4/uL
same,RBC,3 h,620.6 x10_4/ul and 599.8 x10_4/ul
same,Ret,3 h,7.4% and 6.9%
same,WBC,3 h,98.8 x10_2/uL and 73.8 x10_2/uL
same,KIDNEY_L,3 h,1 g and 0.9 g
same,KIDNEY_R,3 h,1 g and 0.9 g
same,KIDNEY_TOTAL,3 h,2 g and 1.9 g
same,LIVER,3 h,10.4 g and 9.4 g
same,A/G,"3 h, tissue Plasma",1.7 and 2.2
same,ALP,"3 h, tissue Plasma",989 IU/L and 1656.4 IU/L
same,ALT,"3 h, tissue Plasma",38.8 IU/L and 39.2 IU/L
same,AST,"3 h, tissue Plasma",67.6 IU/L and 66.6 IU/L
same,BUN,"3 h, tissue Plasma",11.6 mg/dL and 13 mg/dL
same,CRE,"3 h, tissue Plasma",0.4 mg/dL and 0.3 mg/dL
same,Ca,"3 h, tissue Plasma",10.8 mg/dL and 11.1 mg/dL
same,Cl,"3 h, tissue Plasma",101.6 meq/L and 104 meq/L
same,GLC,"3 h, tissue Plasma",190.2 mg/dL and 202 mg/dL
same,IP,"3 h, tissue Plasma",8.4 mg/dL and 9.1 mg/dL
same,K,"3 h, tissue Plasma",4 meq/L and 4.5 meq/L
same,LDH,"3 h, tissue Plasma",180.2 IU/L and 74.6 IU/L
same,Na,"3 h, tissue Plasma",140.6 meq/L and 139.2 meq/L
same,PL,"3 h, tissue Plasma",135.4 mg/dL and 141.2 mg/dL
same,RALB,"3 h, tissue Plasma",3.5 g/dL and 3.8 g/dL
same,TC,"3 h, tissue Plasma",73.4 mg/dL and 84.8 mg/dL
same,TG,"3 h, tissue Plasma",80.2 mg/dL and 53 mg/dL
same,TP,"3 h, tissue Plasma",5.6 g/dL and 5.5 g/dL
same,gamma-GTP,"3 h, tissue Plasma",1 IU/L
same,TERMINAL_BW,6 h,219 g and 212.6 g
same,APTT,6 h,19.5 s and 16.2 s
same,Bas,6 h,0%
same,Eos,6 h,1%
same,Fbg,6 h,221.8 mg/dL and 224 mg/dL
same,Hb,6 h,12.9 g/dL and 12.6 g/dL
same,Ht,6 h,36.6% and 38.1%
same,Lym,6 h,75.4% and 75.2%
same,MCH,6 h,21.8 pg and 21 pg
same,MCHC,6 h,35.4% and 33.1%
same,MCV,6 h,61.6 fL and 63.7 fL
same,Mono,6 h,3.4% and 6.6%
same,Neu,6 h,18.8% and 17.2%
same,PT,6 h,12.7 s and 12 s
same,Plat,6 h,108.3 x10_4/uL and 124 x10_4/uL
same,RBC,6 h,594.4 x10_4/ul and 598.8 x10_4/ul
same,Ret,6 h,7.9% and 7.7%
same,WBC,6 h,107.6 x10_2/uL and 78.5 x10_2/uL
same,KIDNEY_L,6 h,1 g and 0.9 g
same,KIDNEY_R,6 h,1 g
same,KIDNEY_TOTAL,6 h,2 g and 1.9 g
same,LIVER,6 h,9.8 g
same,A/G,"6 h, tissue Plasma",1.5 and 2.3
same,ALP,"6 h, tissue Plasma",798.6 IU/L and 1341.4 IU/L
same,ALT,"6 h, tissue Plasma",34.4 IU/L and 35.2 IU/L
same,AST,"6 h, tissue Plasma",61 IU/L and 65.8 IU/L
same,BUN,"6 h, tissue Plasma",12 mg/dL and 14.8 mg/dL
same,CRE,"6 h, tissue Plasma",0.4 mg/dL
same,Ca,"6 h, tissue Plasma",10.8 mg/dL and 10.9 mg/dL
same,Cl,"6 h, tissue Plasma",102.4 meq/L and 103.8 meq/L
same,GLC,"6 h, tissue Plasma",185.8 mg/dL and 193.2 mg/dL
same,IP,"6 h, tissue Plasma",8.6 mg/dL and 7.9 mg/dL
same,K,"6 h, tissue Plasma",4.2 meq/L and 4.6 meq/L
same,LDH,"6 h, tissue Plasma",177 IU/L and 74.4 IU/L
same,Na,"6 h, tissue Plasma",140.4 meq/L and 137.2 meq/L
same,PL,"6 h, tissue Plasma",137.2 mg/dL and 147 mg/dL
same,RALB,"6 h, tissue Plasma",3.2 g/dL and 3.8 g/dL
same,TC,"6 h, tissue Plasma",80 mg/dL and 86 mg/dL
same,TG,"6 h, tissue Plasma",54 mg/dL and 118.6 mg/dL
same,TP,"6 h, tissue Plasma",5.4 g/dL
same,gamma-GTP,"6 h, tissue Plasma",1 IU/L and 0.4 IU/L
same,TERMINAL_BW,9 h,214.5 g and 212 g
same,APTT,9 h,19.4 s and 16 s
same,Bas,9 h,0%
same,Eos,9 h,1%
same,Fbg,9 h,216.6 mg/dL and 235.2 mg/dL
same,Hb,9 h,13.5 g/dL and 12.9 g/dL
same,Ht,9 h,38.4% and 39.4%
same,Lym,9 h,77.2% and 72%
same,MCH,9 h,21.4 pg and 21.3 pg
same,MCHC,9 h,35.3% and 32.7%
same,MCV,9 h,60.8 fL and 64.9 fL
same,Mono,9 h,2.8% and 8.8%
same,Neu,9 h,18.2% and 18.4%
same,PT,9 h,12.7 s and 11.8 s
same,Plat,9 h,113.7 x10_4/uL and 107.9 x10_4/uL
same,RBC,9 h,633.4 x10_4/ul and 606 x10_4/ul
same,Ret,9 h,7.1%
same,WBC,9 h,86.1 x10_2/uL and 82.1 x10_2/uL
same,KIDNEY_L,9 h,1 g and 0.9 g
same,KIDNEY_R,9 h,1 g and 0.9 g
same,KIDNEY_TOTAL,9 h,2 g and 1.8 g
same,LIVER,9 h,9.3 g and 10.4 g
same,A/G,"9 h, tissue Plasma",1.6 and 2.2
same,ALP,"9 h, tissue Plasma",901.6 IU/L and 1778 IU/L
same,ALT,"9 h, tissue Plasma",34.4 IU/L and 40.2 IU/L
same,AST,"9 h, tissue Plasma",62.2 IU/L and 71 IU/L
same,BUN,"9 h, tissue Plasma",11.6 mg/dL and 14.6 mg/dL
same,CRE,"9 h, tissue Plasma",0.4 mg/dL and 0.3 mg/dL
same,Ca,"9 h, tissue Plasma",10.6 mg/dL and 11.3 mg/dL
same,Cl,"9 h, tissue Plasma",102.2 meq/L and 104.4 meq/L
same,GLC,"9 h, tissue Plasma",194 mg/dL and 183.2 mg/dL
same,IP,"9 h, tissue Plasma",9.3 mg/dL and 7.7 mg/dL
same,K,"9 h, tissue Plasma",4 meq/L and 4.9 meq/L
same,LDH,"9 h, tissue Plasma",211.8 IU/L and 71.2 IU/L
same,Na,"9 h, tissue Plasma",140.2 meq/L and 137.2 meq/L
same,PL,"9 h, tissue Plasma",143.8 mg/dL and 168 mg/dL
same,RALB,"9 h, tissue Plasma",3.3 g/dL and 3.9 g/dL
same,TBIL,"9 h, tissue Plasma",0.1 mg/dL and 0.038 mg/dL
same,TC,"9 h, tissue Plasma",78.8 mg/dL and 100.6 mg/dL
same,TG,"9 h, tissue Plasma",77.2 mg/dL and 109.6 mg/dL
same,TP,"9 h, tissue Plasma",5.3 g/dL and 5.6 g/dL
same,gamma-GTP,"9 h, tissue Plasma",0.6 IU/L and 1 IU/L
same,TERMINAL_BW,24 h,232.8 g and 218.4 g
same,APTT,24 h,19 s and 15.6 s
same,Bas,24 h,0%
same,Eos,24 h,1%
same,Fbg,24 h,219.8 mg/dL and 239.4 mg/dL
same,Hb,24 h,13.6 g/dL and 13.4 g/dL
same,Ht,24 h,39.2% and 40.4%
same,Lym,24 h,75.2% and 73%
same,MCH,24 h,22 pg and 21.7 pg
same,MCHC,24 h,34.9% and 33.3%
same,MCV,24 h,63.2 fL and 65.2 fL
same,Mono,24 h,3% and 10.2%
same,Neu,24 h,19.6% and 15.6%
same,PT,24 h,12.5 s and 11.7 s
same,Plat,24 h,119.5 x10_4/uL and 120.8 x10_4/uL
same,RBC,24 h,620.4 x10_4/ul and 619 x10_4/ul
same,Ret,24 h,7% and 6.5%
same,WBC,24 h,95.9 x10_2/uL and 73.9 x10_2/uL
same,KIDNEY_L,24 h,1 g
same,KIDNEY_R,24 h,1.1 g and 1 g
same,KIDNEY_TOTAL,24 h,2.1 g and 2 g
same,LIVER,24 h,11.1 g and 10.1 g
same,A/G,"24 h, tissue Plasma",1.4 and 2.4
same,ALP,"24 h, tissue Plasma",1022.4 IU/L and 1561.4 IU/L
